Earlier results in patent US11478522B2, “Synergistic herbal compositions with prebiotic properties for treatment of acne” (KAMEDIS LTD., priority 2016, dated 2022).

Tests used:
[1] = molecular target: enzyme 11β-HSD1 (Homo sapiens, UniProt P28845)
[2] = molecular target: NLRP3 inflammasome (Homo sapiens, UniProt Q96P20)
Sequence of NLRP3 inflammasome (Q96P20 whole entry): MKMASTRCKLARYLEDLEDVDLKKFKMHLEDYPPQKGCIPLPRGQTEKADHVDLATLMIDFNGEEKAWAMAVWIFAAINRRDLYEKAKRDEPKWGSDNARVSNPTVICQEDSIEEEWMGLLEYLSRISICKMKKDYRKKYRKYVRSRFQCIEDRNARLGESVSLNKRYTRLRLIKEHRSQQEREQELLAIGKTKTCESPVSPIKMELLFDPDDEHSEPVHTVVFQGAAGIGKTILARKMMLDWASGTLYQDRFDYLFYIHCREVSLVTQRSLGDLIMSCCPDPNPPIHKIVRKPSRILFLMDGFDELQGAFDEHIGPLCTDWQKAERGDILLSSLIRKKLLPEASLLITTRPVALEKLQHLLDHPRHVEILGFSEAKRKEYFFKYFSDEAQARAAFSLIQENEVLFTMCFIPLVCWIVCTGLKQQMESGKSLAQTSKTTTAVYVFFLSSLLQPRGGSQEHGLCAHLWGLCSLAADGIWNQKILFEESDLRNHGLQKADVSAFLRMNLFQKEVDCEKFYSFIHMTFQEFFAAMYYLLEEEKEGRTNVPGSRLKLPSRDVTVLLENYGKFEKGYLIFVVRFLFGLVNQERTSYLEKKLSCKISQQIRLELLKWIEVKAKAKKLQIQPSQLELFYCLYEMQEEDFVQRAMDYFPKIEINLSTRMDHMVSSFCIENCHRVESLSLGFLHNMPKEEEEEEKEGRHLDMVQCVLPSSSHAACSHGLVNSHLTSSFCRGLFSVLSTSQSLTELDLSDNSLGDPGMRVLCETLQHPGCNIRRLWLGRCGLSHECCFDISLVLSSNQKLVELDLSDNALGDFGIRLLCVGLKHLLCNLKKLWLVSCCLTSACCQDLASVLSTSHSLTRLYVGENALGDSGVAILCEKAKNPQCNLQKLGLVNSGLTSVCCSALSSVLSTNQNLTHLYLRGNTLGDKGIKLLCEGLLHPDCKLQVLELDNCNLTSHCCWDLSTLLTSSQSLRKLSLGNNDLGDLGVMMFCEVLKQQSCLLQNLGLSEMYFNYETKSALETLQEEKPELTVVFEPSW

Sequence of enzyme 11β-HSD1 (P28845 whole entry, species assumed): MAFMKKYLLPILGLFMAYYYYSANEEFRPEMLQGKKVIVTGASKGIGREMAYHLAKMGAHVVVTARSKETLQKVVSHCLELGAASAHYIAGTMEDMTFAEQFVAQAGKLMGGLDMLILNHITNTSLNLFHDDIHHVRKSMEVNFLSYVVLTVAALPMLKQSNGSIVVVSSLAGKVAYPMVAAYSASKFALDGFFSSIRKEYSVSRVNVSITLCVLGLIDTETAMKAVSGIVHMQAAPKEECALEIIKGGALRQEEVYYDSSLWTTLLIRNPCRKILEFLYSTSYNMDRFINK

inhibition of the enzyme 11β-HSD1 [1]: effective and selective as inhibitors | NLRP3 inflammasome activation [2]: attenuate NLRP3 inflammasome activation
Compound: Cc1cc(O)c2c(c1)C(=O)c1cc(O)cc(O)c1C2=O [emodin]
